Results on four molecules are retold here after patent publication US20250195681A1, “ANTI-GPC3 ANTIBODY DRUG CONJUGATE AND USE THEREOF” (DUALITY BIOLOGICS (SUZHOU) CO., LTD., priority 2022, published 2025).

The subject of test [1] is advanced liver cancer. Conditions: patients with high GPC3 expression; cited from earlier work.
The test system of test [2] is advanced liver cancer. The note with it: Phase II; cited from earlier work.
A further test relates to JIMT-1. Description: In vitro proliferation inhibition of small molecule payloads, CTG, 6 days (3.2). It counts as cell-based. Conditions: Homo sapiens, JIMT-1, 144 h, read-out: JIMT-1 IC50. Here is the method: To detect the in vitro proliferation inhibitory activity of the drug compounds on NCI-N87, JIMT-1, and MBA-MB-231 tumor cells. Cells were treated with different concentrations of the compounds in vitro, and after 6 days of culture, cell proliferation was detected using the CTG (CellTiter-Glo® Luminescent Cell Viability Assay, Promega, Cat. No.: G7558) reagent. The IC50 value was used to assess the in vitro activity of the compounds.
1. Cell culture: NCI-N87, JIMT-1, and MBA-MB-231 cells were cultured in RPMI-1640 medium containing 10% FBS.
2. Cell preparation: NCI-N87, JIMT-1, and MBA-MB-231 cells in the logarithmic growth phase were washed once with PBS, then digested with 2-3 mL of trypsin for 2-3 minutes. […]
(§1) 7. Plate reading operation: The 96-well cell culture plate was placed in a microplate reader, and the chemiluminescence was measured with the microplate reader.
(§2) Data analysis: The data were processed and analyzed using Microsoft Excel and GraphPad Prism 5.
8. Data analysis: The cell viability was calculated using the formula: Vsample/Vvehicle control x 100% where Vsample represents the reading from the drug-treated group, and Vvehicle control represents the average value of the vehicle control group. GraphPad Prism software was used to plot the S-shaped dose-viability curve using a nonlinear regression model, and the IC50 values were calculated.

The next test has as its system Colo205. Briefly: In vitro proliferation inhibition of small molecule payloads, CTG, 6 days (3.3). Conditions: Homo sapiens, COLO 205, 144 h, read-out: Abs-IC50 Colo205. Format: cell-based. As for the experimental part: (§3) To detect the in vitro proliferation inhibitory activity of the drug compounds on NCI-N87 and Colo205 tumor cells. Cells were treated with different concentrations of the compounds in vitro, and after 6 days of culture, cell proliferation was detected using the CTG (CellTiter-Glo® Luminescent Cell Viability Assay, Promega, Cat. No.: G7558) reagent. The IC50 value was used to assess the in vitro activity of the compounds.
(§4) 1. Cell culture: NCI-N87 and Colo205 cells were cultured in RPMI-1640 medium containing 10% FBS.
(§5) 2. Cell preparation: NCI-N87 and Colo205 cells in the logarithmic growth phase were washed once with PBS, then digested with 2-3 mL of trypsin for 2-3 minutes. Once the cells were fully digested, 10-15 mL of cell culture medium was added to wash off the digested cells. The mixture was then centrifuged at 1000 rpm for 5 minutes, then the supernatant was discarded, and the cells were resuspended in 10-20 mL of cell culture medium to prepare a single-cell suspension.
(§6) 3. Cell plating: The single-cell suspension of NCI-N87 and Colo205 was mixed well, and the density of viable cells was adjusted to 6×10^4 cells/mL using a cell culture medium. The density-adjusted cell suspension was mixed well and added to a 96-well cell culture plate at 50 μL per well. The culture plate was incubated in an incubator for 18 hours (37° C., 5% CO2).
(§7) 4. Compound preparation: The compounds were dissolved in DMSO to prepare stock solutions with an initial concentration of 10 mM.
(§8) Eight concentrations of the small molecule compounds were prepared: 300, 100, 30, 10, 3, 1, 0.3, and 0.1 nM.
(§9) 5. Sample addition operation: The prepared samples at different concentrations were added to a culture plate, with two replicate wells for each sample. The culture plate was incubated in an incubator for 6 days (37° C., 5% CO2).
6. […]
as §1, §2

The test system of another test is NCI-N87. The description is as above. The note with it: Homo sapiens, NCI-N87, 144 h, read-out: Abs-IC50 NCI-N87. It counts as cell-based. Here is the method:
as §3, §4, §5, §6, §7, §8, §9
6. […]
as §1, §2

Regarding Codrituzumab, the “disease progression (in words)” value in the test on advanced liver cancer [1] is on record as “showed a trend of delayed disease progression”. The “survival (in words)” value in the test on advanced liver cancer [2] is “did not demonstrate a statistically significant improvement in survival”.

In the case of `CC[C@@]1(O)C(=O)OCc2c1cc1n(c2=O)Cc2c-1nc1cc(F)c(C)c3c1c2[C@@H](NC(=O)CCN)CC3` [Reference Example 1], in the test on JIMT-1, the IC50 came out at 36.2 nM.

`CC[C@@]1(O)C(=O)OCc2c1cc1n(c2=O)Cc2c-1nc1cc(F)c(C)c3c1c2[C@@H](NC(=O)CO)CC3` [Preparation Example 9, DXd, reference compound]: the IC50 in the test on Colo205 came to 294 nM; with NCI-N87, 13.9 nM.

Take `CC[C@@]1(O)C(=O)OCc2c1cc1n(c2=O)Cc2c-1nc1cc(F)c(C)c3c1c2[C@@H](NC(=O)CCO)CC3` [Preparation Example 8]: the IC50 in the test with NCI-N87 came out at 15.1 nM.

In general, IC50 refers to the concentration at which inhibition is half-maximal.
